Drawing on patent US10738062B2, “Chromane-substituted tetracyclic compounds and uses thereof for the treatment of viral diseases” (Merck Sharp & Dohme Corp., priority 2016, dated 2020), this text covers EC50 for nine compounds.

What all share (set-up): species or system Hepatitis C virus
The test system of one assay is HCV replicon 1A. The experiment in a line: Cell-based HCV replicon assay (Replicon Assay A), replicon 1A. Conditions: replicon RNA by real time PCR, day 3. The essentials:
(§1)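 Replicon cells were seeded at 2000/well with compound, 10 serial dilutions starting at 333.3 nM to 1.667 nM, in 0.5% DMSO and 5% FBS, then harvested on day 3. Replicon RNA was measured by multiplex TaqMan RT-PCR with cyclophilin as endogenous control. EC50 is the concentration raising Ct by 1 over projected baseline.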
Background: In antiviral work, replicon cells carry a viral genome segment that copies itself.

The subject of another assay is HCV replicon 1B. Kind of assay: Cell-based HCV replicon assay (Replicon Assay B), replicon 1B. The conditions noted are these: replicon RNA by real-time PCR, 3 days. The procedure: In an alternate assay (“Replicon Assay B”), 1000 cells were seeded per well in a 384-well collagen coated black plate from Greiner bio-one (Cat #781946) in 5% FBS. Inhibitors of this invention were added at 24 h post-seeding, and the plates were incubated for 3 days. Cells were subsequently lysed with Qiagen lysis buffer (Cat #1062731) to extract the RNA. HCV replicon RNA level was measured by real-time PCR using the RNA-to-CT kit from Applied Biosystem (Cat #4392656) and genotype-specific primers and probes. The amplicon was located within NS5B. […] (SEQ. ID NO. 2); the probe sequence was FAM-labeled […] (SEQ. ID NO. 3).
The real-time RT-PCR reactions were run on ABI PRISM 7900HT or Viia7 Sequence Detection System using the following program: 48° C. for 30 minutes, 95° C. for 10 minutes, 40 cycles of 95° C. for 15 sec, 60° C. for 1 minutes.
EC50 data for replicons 1A, 1AY93H and 2B were obtained using Replicon Assay A and EC50 data for replicon 1B was obtained using Replicon Assay B.

For a further assay, the system named is HCV replicon 2B. The experiment in a line: Cell-based HCV replicon assay (Replicon Assay A), replicon 2B. The conditions noted are these: read-out: EC50 replicon 2B; Replicon Assay A; replicon RNA by real time PCR, day 3. The essentials: as §1
In a further assay the test system is HCV replicon 1A Y93H. The experiment in a line: Cell-based HCV replicon assay (Replicon Assay A), replicon 1AY93H. The conditions noted are these: replicon RNA by real time PCR, day 3. The essentials: as §1
[1] abbreviates: read-out: EC50 replicon 1A Y93H, Replicon Assay A.

Read-outs that look alike come from different tables or passages of the source.

In general, EC50 refers to the concentration that produces a half-maximal response. For the compound `COC(=O)N[C@H](C(=O)N1CCC[C@H]1c1ncc(-c2cc(F)c3c(c2)OC(c2ccc4c(c2)OCCC4C)n2c-3cc3cc(-c4cnc([C@@H]5CCCN5C(=O)[C@@H](NC(=O)OC)C(C)C)[nH]4)ccc32)[nH]1)C(C)C` (single isomer, unassigned) [Compound 8], the EC50 in the assay on HCV replicon 1A was 2.1 pM; with HCV replicon 1B (Hepatitis C virus, 72 h), 1.1 pM; with HCV replicon 2B, 41 pM; with HCV replicon 1A Y93H (setting [1]), 38 pM.
On the same counts, the results for `COC(=O)N[C@H](C(=O)N1CCC[C@H]1c1ncc(-c2cc(F)c3c(c2)OC(c2ccc4c(c2)OCCC4(F)F)n2c-3cc3cc(-c4cnc([C@@H]5CCCN5C(=O)[C@@H](NC(=O)OC)C(C)C)[nH]4)ccc32)[nH]1)C(C)C` (single isomer, unassigned) [Compound 20] are 1.3 pM, 1.4 pM, 40 pM and 67 pM.
As for `CCO[C@H](C)[C@H](NC(=O)OC)C(=O)N1CCC[C@H]1c1ncc(-c2cc(F)c3c(c2)OC(c2ccc4c(c2)OCCC4)n2c-3cc3cc(-c4cnc([C@@H]5CCCN5C(=O)[C@@H](NC(=O)OC)C(C)C)[nH]4)ccc32)[nH]1` (single isomer, unassigned) [Compound 39], the EC50 with HCV replicon 1A (Hepatitis C virus, 72 h) is 1.7 pM; in the assay on HCV replicon 1B (Hepatitis C virus, 72 h), 1.4 pM; in the assay on HCV replicon 2B, 910 pM; in the assay with HCV replicon 1A Y93H (setting [1]), 3380 pM.
Consider `CCO[C@H](C)[C@H](NC(=O)OC)C(=O)N1CCC[C@H]1c1ncc(-c2cc(F)c3c(c2)OC(c2ccc4c(c2)OCCC4)n2c-3cc3cc(-c4cnc([C@@H]5CCCN5C(=O)[C@@H](NC(=O)OC)C(C)C)[nH]4)ccc32)[nH]1` (single isomer, unassigned) [Compound 40], for which the EC50 worked out at 2.1 pM in the assay on HCV replicon 1A, 2.2 pM in the assay on HCV replicon 1B, 86 pM in the assay with HCV replicon 2B and 107 pM with HCV replicon 1A Y93H (setting [1]).
`COC(=O)NC(C(=O)N1CCC[C@H]1c1ncc(-c2ccc3c(c2)cc2n3C(c3ccc4c(c3)OC(C)CC4)Oc3cc(-c4cnc([C@@H]5CCCN5C(=O)[C@@H](NC(=O)OC)C(C)C)[nH]4)cc(F)c3-2)[nH]1)C1C[C@@H](C)O[C@@H](C)C1` (single isomer, unassigned) [Compound 59]: the EC50 was found to be 3.2 pM with HCV replicon 1A; 2.7 pM with HCV replicon 1B (Hepatitis C virus, 72 h); 17 pM in the assay with HCV replicon 2B; 15 pM with HCV replicon 1A Y93H (setting [1]).
With `CCN(CC)[C@@H](C(=O)N1[C@@H]2C[C@@H]2C[C@H]1c1ncc(-c2ccc3c(c2)cc2n3C(c3ccc4c(c3)OCCC4)Oc3cc(-c4cnc([C@@H]5CCCN5C(=O)[C@@H](NC(=O)OC)C5CCOCC5)[nH]4)cc(F)c3-2)[nH]1)c1ccccc1` (single isomer, unassigned) [Compound 54], the EC50 in the assay with HCV replicon 1A (Hepatitis C virus, 72 h) came to 4.9 pM; in the assay on HCV replicon 1B (Hepatitis C virus, 72 h), 2.4 pM; in the assay with HCV replicon 2B it was 11 pM; in the assay with HCV replicon 1A Y93H (Hepatitis C virus, 72 h, read-out: EC50 replicon 1A Y93H, Replicon Assay A), 8 pM.
As to `COC(=O)N[C@H](C(=O)N1CCC[C@H]1c1ncc(-c2cc(F)c3c(c2)OC(c2ccc4c(c2)OCC4)n2c-3cc3cc(-c4cnc([C@@H]5C[C@H]6C[C@H]6N5C(=O)[C@@H](NC(=O)OC)C(C)C)[nH]4)ccc32)[nH]1)C(C)C` (single isomer, unassigned) [Compound 48], the EC50 amounted to 1.9 pM with HCV replicon 1A (Hepatitis C virus, 72 h); 1.5 pM in the assay with HCV replicon 1B (Hepatitis C virus, 72 h); 382 pM with HCV replicon 2B; 33 pM in the assay on HCV replicon 1A Y93H (setting [1]).
Take `COC(=O)NC(C(=O)N1CCC[C@H]1c1ncc(-c2ccc3c(c2)cc2n3C(c3ccc4c(c3)OCCC4)Oc3cc(-c4cnc([C@@H]5CCCN5C(=O)[C@@H](NC(=O)OC)C(C)C)[nH]4)cc(C)c3-2)[nH]1)C1C[C@@H](C)O[C@@H](C)C1` (single isomer, unassigned) [Compound 86]: the EC50 with HCV replicon 1A turned out to be 3 pM; in the assay with HCV replicon 1B (Hepatitis C virus, 72 h) it was 2.7 pM; in the assay with HCV replicon 2B, 7 pM; in the assay with HCV replicon 1A Y93H (setting [1]), 28 pM.
On the same counts, the results for `COC(=O)NC(C(=O)N1[C@@H]2C[C@@H]2C[C@H]1c1ncc(-c2ccc3c(c2)cc2n3C(c3ccc4c(c3)OCCC4)Oc3cc(-c4cnc([C@@H]5CCCN5C(=O)[C@@H](NC(=O)OC)C(C)C)[nH]4)cc(F)c3-2)[nH]1)C1CCO[C@H](C)C1` (single isomer, unassigned) [Compound 82] are 1.7 pM, 2.1 pM, 4 pM and 3 pM.
